“Also recorded” adds a separate entry of the source. Each block holds one molecule with its values, some of them ahead of it.
Assays:
Bcl-xL = Bcl-xL (Homo sapiens, UniProt Q07817); experiment: liposome assay with Bcl-xL in place of Mcl-1; assay type: biochemical
Source text: (§1) Moreover, when Mcl-1 was replaced with Bcl-xL in the assay, 12 also had no effect (FIG. 10). […] Toxic thrombocytopenia caused by ABT-737 in vivo has been correlated with Bcl-xL inhibition.^25

Bak = experiment: liposome assay with Bak-loaded proteoliposomes lacking Mcl-1; assay type: biochemical; details: Bak loaded proteoliposomes without Mcl-1
Procedure: (§2) Synthetic 3, along with numerous intermediates and their derivatives were assayed in a model system for mitochondrial outer membrane permeabilization (MOMP). This liposome based experiment recapitulates a signaling axis involving pro-apoptotic Bak, anti-apoptotic Mcl-1, and an active, truncated 15 kDa subunit of the pro-death protein Bid (tBid).^11 Bak and Mcl-1 are transmembrane proteins constitutively anchored in the mitochondrial outer membrane. tBid translocates to mitochondria upon cleavage of Bid by caspase-8 and stimulates MOMP by directly activating free Bak and by disengaging any activated Bak from Mcl-1. Applicants' assay mimics these events using recombinant, lipidated Mcl-1 and Bak that are constitutively bound to unilamellar liposomes encapsulating calcein dye. tBid addition initiates Bak homo oligomerization and pore formations, which in turn results in calcein release and a fluorescence signal. Mcl-1 counters this tBid dependent activation of Bak, which is overcome by small molecule Mcl-1 antagonists (FIG. 6).
(§3) Recombinant Mcl-1 was expressed and purified from E. coli.
as §1

recombinant Mcl-1 = molecular target: T1, recombinant Mcl-1 (Homo sapiens, UniProt Q07820); experiment: isothermal titration microcalorimetry (ITC) with purified recombinant Mcl-1; assay type: binding; details: for binding / affinity for Mcl-1 measurable by ITC: purified recombinant Mcl-1, in words
T1 construct: made in house; host or cells: E. coli

Mcl-1/Bak PPI = experiment: liposome functional assay for Mcl-1/Bak (calcein release, MOMP model); assay type: biochemical; details: in words
Source text: The Shore lab has developed a functional assay utilizing recombinant proteins anchored in artificial liposomes that enables the evaluation of small-molecules to disrupt the Mcl-1/Bak PPI (FIG. 2A). In this assay, full-length functional single cysteine mutants of Mcl-1 and Bak were anchored into lipids (with PE's) utilizing the engineered cysteine residues as a handle. This allows Applicants to recapitulate Bak-mediated mitochondrial permeabilization and measure the various protein-protein and protein-membrane interactions involved in Mcl-1 regulation of Bak. The release of calcenin (Cn) dye encapsulated in the liposome was used to quantify membrane permeabilization. When the system is untreated, Mcl-1 sequesters Bak by engaging its BH3 domain. Incubation with an active inhibitor neutralizes Mcl-1. This triggers Bak auto-oligomerization resulting in the formation of pores in the lipid membrane and release of Cn. By measuring […] from Cn, Applicants can quantify antagonism of Mcl-1 in real time.
as §2

[1] = in vivo toxicity (minimum toxic dose)
[2] = test system: human KMS-11 myeloid leukemia cells; experiment: cytotoxicity in cell culture, KMS-11; assay type: cell-based; details: KMS-11 cells, single dose, in words
human KMS-11 cells = experiment: cytotoxicity in cell culture, KMS-11; assay type: cell-based; details: 1.0 μM concentration
[3] = test system: Ep-myc (myr) Akt lymphoma cells; experiment: mouse lymphoma model with and without doxorubicin, tumor-free survival; assay type: in vivo, C57BL/6 mice
Procedure: C57BL/6 mice were tail-vein injected with Ep-myc (myr) Akt lymphoma cells and palpable tumors (multiple sites per animal) allowed to develop. Animals were randomized for tumor burden and treated by intraperitoneal (IP) injection with vehicle, or vehicle containing obatoclax (10 mg/kg) or JHF3056 (40 mg/kg) daily×5. In addition, animals received a single injection of doxorubicin (IP, 10 mg/kg) on day 2 of the injection regimen, either alone or in combination with the obatoclax (9) or JHF3056 (10) regimen. Animals were allowed to become tumor-free (no observable palpable tumors) and then tumor-free survival was measured (time to re-appearance of tumors).

[4] = stability of the neat substance; assay type: physicochemical; details: in words
truncated Bid = experiment: binding to truncated Bid; details: data not shown
Source text: as §3

T1 sequence (Q07820 whole entry): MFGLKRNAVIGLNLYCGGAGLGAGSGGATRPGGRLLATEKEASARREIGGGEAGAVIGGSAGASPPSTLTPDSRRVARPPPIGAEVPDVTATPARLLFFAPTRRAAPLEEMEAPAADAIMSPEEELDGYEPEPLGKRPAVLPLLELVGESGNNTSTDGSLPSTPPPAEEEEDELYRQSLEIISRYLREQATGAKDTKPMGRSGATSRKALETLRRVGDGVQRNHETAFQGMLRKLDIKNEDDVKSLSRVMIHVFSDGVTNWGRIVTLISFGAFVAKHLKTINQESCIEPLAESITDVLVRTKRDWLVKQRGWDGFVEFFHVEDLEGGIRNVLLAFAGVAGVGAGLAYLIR
Sequence of Bcl-xL (Q07817 whole entry, species assumed): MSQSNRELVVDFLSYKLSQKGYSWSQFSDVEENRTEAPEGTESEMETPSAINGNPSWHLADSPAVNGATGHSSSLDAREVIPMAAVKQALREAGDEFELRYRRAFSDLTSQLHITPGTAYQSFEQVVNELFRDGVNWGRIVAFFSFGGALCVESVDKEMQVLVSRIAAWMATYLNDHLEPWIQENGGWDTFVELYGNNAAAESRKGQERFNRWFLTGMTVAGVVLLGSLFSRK

- Kd (recombinant Mcl-1; purified recombinant Mcl-1): 700 ± 120 nM
- binding / affinity for Mcl-1 measurable by ITC (recombinant Mcl-1): strong, saturable binding
Compound: COc1cc(-c2c(Cl)ccn2S(=O)(=O)c2ccc(C)cc2)oc1-c1nnn[nH]1 [Compound 12]
- MOMP-like pore formation in liposomes containing Bcl-xL (Bcl-xL): no effect; also recorded: did not stimulate MOMP-like pore formations
- calcein release from liposomes lacking Mcl-1 (Bak): did not release calcein dye
- antagonism of Mcl-1 / Bak-mediated permeabilization of liposomal membranes (Mcl-1/Bak PPI): stimulate Bak-mediated permeabilization of liposomal membranes; also recorded: successfully drove pore formations; also recorded: exceeded that of 5 and obatoclax

Compound: COc1cc(-c2c(Cl)ccn2S(=O)(=O)c2ccc(C)cc2)oc1C(C)=O [JHF3056, 1-(5-(3-chloro-1-tosyl-1H-pyrrol-2-yl)-3-methoxyfuran-2-yl)ethan-1-one]
- minimum toxic dose ([1]; in vivo): 80 mg/kg
- toxicity at pharmacologically relevant doses ([1]; in words): nontoxic at pharmacologically relevant doses
- cytotoxicity [2]: cytotoxic at micromolar concentrations; also recorded: sub-micromolar cytotoxicity
- cytotoxicity ([2]; listed as 10): sub-micromolar single dose cytotoxicity
- cytotoxic activity relative to obatoclax (human KMS-11 cells): enhanced activity relative to obatoclax (9)
- anti-tumor activity in combination with doxorubicin ([3]; JHF3056 40 mg/kg IP daily×5, doxorubicin 10 mg/kg IP day 2): sensitizes lymphoma tumor xenografts to doxorubicin
- anti-tumor activity in combination with doxorubicin ([3]; JHF3056 40 mg/kg IP daily×5, doxorubicin 10 mg/kg IP day 2, listed as 10): clear anti-tumor activity in combination with the chemotherapeutic doxorubicin
- calcein release from liposomes lacking Mcl-1 (Bak): did not induce release of calcein
- binding / affinity for Mcl-1 measurable by ITC (recombinant Mcl-1; listed as 5): Neither 2 nor 5 demonstrated measurable affinity
- antagonism of Mcl-1 / Bak-mediated permeabilization of liposomal membranes (Mcl-1/Bak PPI): capacity to antagonize the Mcl-1/Bak PPI; also recorded: directly antagonizes Mcl-1; also recorded: superior performance of JHF3056 (10) relative to 8 and 9
- antagonism of Mcl-1 / Bak-mediated permeabilization of liposomal membranes (Mcl-1/Bak PPI; listed as 5): counter Mcl-1 activity and promote Bak-mediated permeabilization of liposomal membranes; also recorded: near equipotent to 4
- antagonism of Mcl-1 / Bak-mediated permeabilization of liposomal membranes (Mcl-1/Bak PPI; listed as 10): promising activity
- stability [4]: stable solid
- stability ([4]; listed as 5): bench stable solid
- binding to truncated Bid (truncated Bid): no binding

Compound: COc1cc(-c2[nH]ccc2Cl)oc1C1=C2N=C3C=C2[C@H](C(C)C)[C@H]1CCCCCCCC3 [roseophilin, reference compound]
- antagonism of Mcl-1 / Bak-mediated permeabilization of liposomal membranes (Mcl-1/Bak PPI): little activity
